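Five concentrations, 48 hours, 96-well plates. GI50 marks 50% less growth.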 The source made the active and inactive calls. No stated cut-off is given here; in the data, active = GI50 up to about 1.1 µM and inactive = higher.
Assays:
Test in all cases: NCI-60 cell line screen, 48 h
[1] = system: MOLT-4
[2] = system: NCI-H226
[3] = system: HCT-15
[4] = system: M14
[5] = system: OVCAR-4
[6] = system: SK-MEL-28
[7] = system: Malme-3M
[8] = system: LOX IMVI
[9] = system: HCT-116
[10] = system: NCI-H23
[11] = system: KM12
[12] = system: U-251
[13] = system: RPMI-8226
[14] = system: EKVX
[15] = system: A498
[16] = system: OVCAR-5

| Structure (SMILES) | GI50 [1] | GI50 [2] | GI50 [3] [µM] | GI50 [4] | GI50 [5] | GI50 [6] | GI50 [7] | GI50 [8] | GI50 [9] | GI50 [10] | GI50 [11] | GI50 [12] | GI50 [13] | GI50 [14] | GI50 [15] | GI50 [16] |
| --- | --- | --- | --- | --- | --- | --- | --- | --- | --- | --- | --- | --- | --- | --- | --- | --- |
| O=C(NN1C(=O)C(Cl)C1c1ccc(O)cc1)c1ccccc1O (configuration not stated) | 27.6 µM (inactive) | 16 µM (inactive) | 14.6 | 22.2 µM (inactive) | 23.7 µM (inactive) | 19.4 µM (inactive) | 18.6 µM (inactive) | 16.7 µM (inactive) | 13.7 µM (inactive) | 22.2 µM (inactive) | 14 µM (inactive) | 14.3 µM (inactive) |  |  |  |  |
| O=C1C=C(O)c2nc(O)ccc2C1=O | > 100 µM (inactive) | > 100 µM (inactive) | > 100 | > 100 µM (inactive) | 26.2 µM (inactive) | > 100 µM (inactive) | > 100 µM (inactive) | > 100 µM (inactive) | > 100 µM (inactive) | > 100 µM (inactive) |  | > 100 µM (inactive) | > 100 µM (inactive) | > 100 µM (inactive) | > 100 µM (inactive) |  |
| Cc1cc(C)[n+]2c(c1)C=CC2.[O-][Cl+3]([O-])([O-])[O-] |  | 15.6 µM (inactive) |  | 8.11 µM (inactive) | 49.9 µM (inactive) | 12.4 µM (inactive) | 1.65 µM (inactive) | 17.1 µM (inactive) |  | 15.7 µM (inactive) | 27.6 µM (inactive) | 29.7 µM (inactive) |  | 21.6 µM (inactive) |  | > 100 µM (inactive) |
| COc1ccc(CC#C/C=C/C(=O)NCC(C)C)cc1 | > 100 µM (inactive) | > 100 µM (inactive) | > 100 | > 100 µM (inactive) | > 100 µM (inactive) | > 100 µM (inactive) | > 100 µM (inactive) | > 100 µM (inactive) | > 100 µM (inactive) | > 100 µM (inactive) | > 100 µM (inactive) | > 100 µM (inactive) | > 100 µM (inactive) | > 100 µM (inactive) |  | > 100 µM (inactive) |
| CC(=O)NCc1c(C(N)=O)ncn1Cc1ccccc1 | > 100 µM (inactive) |  | > 100 | > 100 µM (inactive) | > 100 µM (inactive) | > 100 µM (inactive) |  | > 100 µM (inactive) | > 100 µM (inactive) | > 100 µM (inactive) |  | > 100 µM (inactive) | > 100 µM (inactive) | > 100 µM (inactive) | > 100 µM (inactive) |  |
| COc1ccc2cc1Oc1ccc(cc1)CC1c3cc4c(cc3CCN1C)Oc1c(OC)cc3c(c1O4)C(C2)N(C)CC3 (configuration not stated) | 1.44 µM (inactive) | 1.72 µM (inactive) | 2.42 | 1.64 µM (inactive) | 1.47 µM (inactive) | 1.49 µM (inactive) |  | 1.46 µM (inactive) | 1.7 µM (inactive) | 4.26 µM (inactive) | 2.11 µM (inactive) | 2.26 µM (inactive) |  | 9.79 µM (inactive) |  | 13.6 µM (inactive) |
| CC(=O)OC1COC(N2C(=O)C(=O)c3ccccc32)C(OC(C)=O)C1OC(C)=O (configuration not stated) | > 100 µM (inactive) | > 100 µM (inactive) | > 100 | > 100 µM (inactive) | > 100 µM (inactive) | > 100 µM (inactive) | > 100 µM (inactive) | > 100 µM (inactive) |  | > 100 µM (inactive) | > 100 µM (inactive) | > 100 µM (inactive) | > 100 µM (inactive) | > 100 µM (inactive) | > 100 µM (inactive) |  |
| COc1ccc(C(c2c(O)c3ccccc3n(-c3ccccc3)c2=O)c2c(O)c3ccccc3n(-c3ccccc3)c2=O)cc1 | > 100 µM (inactive) | > 100 µM (inactive) | > 100 |  | > 100 µM (inactive) | > 100 µM (inactive) | > 100 µM (inactive) | > 100 µM (inactive) | > 100 µM (inactive) | > 100 µM (inactive) | > 100 µM (inactive) | > 100 µM (inactive) | > 100 µM (inactive) | > 100 µM (inactive) |  | > 100 µM (inactive) |
| O=C1c2ccccc2C(=O)N1C/C=N/NS(=O)(=O)c1ccc2ccccc2c1 | > 100 µM (inactive) | > 100 µM (inactive) | > 100 | > 100 µM (inactive) | > 100 µM (inactive) |  | > 100 µM (inactive) |  | > 100 µM (inactive) | > 100 µM (inactive) | > 100 µM (inactive) | > 100 µM (inactive) | > 100 µM (inactive) | > 100 µM (inactive) | > 100 µM (inactive) | > 100 µM (inactive) |
| O=c1c2ccccc2oc2nccnc12 | > 100 µM (inactive) |  | > 100 | > 100 µM (inactive) | > 100 µM (inactive) | > 100 µM (inactive) | > 100 µM (inactive) | > 100 µM (inactive) | > 100 µM (inactive) | > 100 µM (inactive) | > 100 µM (inactive) | > 100 µM (inactive) | > 100 µM (inactive) | > 100 µM (inactive) | > 100 µM (inactive) | > 100 µM (inactive) |
| COc1cc2c(cc1OC)C(C(CBr)CBr)N(C1CCCC1)CC2 (configuration not stated) | > 100 µM (inactive) | 82.6 µM (inactive) | > 100 | > 100 µM (inactive) | > 100 µM (inactive) | > 100 µM (inactive) | > 100 µM (inactive) | > 100 µM (inactive) |  | > 100 µM (inactive) | > 100 µM (inactive) | > 100 µM (inactive) | > 100 µM (inactive) | > 100 µM (inactive) | > 100 µM (inactive) | > 100 µM (inactive) |
| C#C[C@@]1(O)CCCC2=CC(=O)C[C@]21C | > 100 µM (inactive) | > 100 µM (inactive) | > 100 | > 100 µM (inactive) |  | > 100 µM (inactive) | > 100 µM (inactive) |  |  | > 100 µM (inactive) | > 100 µM (inactive) | > 100 µM (inactive) | > 100 µM (inactive) | > 100 µM (inactive) |  | > 100 µM (inactive) |
| C[N+](C)(C)CC1CCCCC1O (configuration not stated) | > 100 µM (inactive) | > 100 µM (inactive) | > 100 | > 100 µM (inactive) | > 100 µM (inactive) | > 100 µM (inactive) |  | > 100 µM (inactive) | > 100 µM (inactive) | > 100 µM (inactive) |  | > 100 µM (inactive) | > 100 µM (inactive) |  | > 100 µM (inactive) | > 100 µM (inactive) |
| CCCC(C)NC1=C(NC(C)=O)C(=O)c2ccccc2C1=O (configuration not stated) | > 100 µM (inactive) | > 100 µM (inactive) | > 100 | > 100 µM (inactive) | > 100 µM (inactive) | > 100 µM (inactive) | 36.1 µM (inactive) | > 100 µM (inactive) | > 100 µM (inactive) | > 100 µM (inactive) | > 100 µM (inactive) | > 100 µM (inactive) |  | > 100 µM (inactive) |  |  |
| COC(=O)C[S+]([O-])c1ccccc1 (configuration not stated) | 10.8 µM (inactive) |  | 28.7 | 37.3 µM (inactive) | 41.2 µM (inactive) | 29.8 µM (inactive) | > 100 µM (inactive) | 21.8 µM (inactive) | 30.3 µM (inactive) | 35 µM (inactive) | 28.3 µM (inactive) | 24.4 µM (inactive) | 21.9 µM (inactive) | 50.7 µM (inactive) | 49.8 µM (inactive) | 68.4 µM (inactive) |
